Earlier results, collected in patent US10272040B2, “Liposomal formulation for ocular drug delivery” (Nanyang Technological University, priority 2010, dated 2019).

Columns and labels:
[1] = other drugs in liposomes
[2] = SRC PhysProp Database

Structure (SMILES): N.N.[Cl][Pt][Cl] [cisplatin]
- Drug:Lipid mole ratio, Literature [1]: 0.05

Structure (SMILES): CC(C)OC(=O)CCC/C=C\C[C@@H]1[C@@H](CC[C@@H](O)CCc2ccccc2)[C@H](O)C[C@@H]1O [latanoprost]
- log P [2]: 4.4
